Entries after “also recorded” stand apart in the source; their conditions may differ. Where two headings read alike, the source gives them in different places.
Assays:
Type in all cases: cell-based, human
IL-8 = assay: Inhibition of IL-8 production by TNFα stimulation in synovial fibroblasts derived from a rheumatoid patient (ELISA); conditions: for inhibition at 1 µM: 1000 nM, in parentheses, read-out: Inhibitory ratios (%) at 1000 nM, IL-8; for IC50: synovial fibroblasts, read-out: Inhibition against Mediator Release IC50(nM) IL-8
Protocol: (§1) Synovial fibroblasts (Human Synoviocyte (RA-Positive), Toyobo, T4040-05) were cultured for 3 days in a medium containing 10 ng/ml of TNFα and a test compound. IL-6 and IL-8 in the supernatant were measured by the ELISA method, and PGE2 (prostaglandin E2) was measured by the EIA method.

IL-6 = assay: Inhibition of IL-6 production by TNFα stimulation in synovial fibroblasts derived from a rheumatoid patient (ELISA); conditions: for IC50: synovial fibroblasts, read-out: Inhibition against Mediator Release IC50(nM) IL-6; for Inhibitory ratios (%) at 1000 nM, IL-6: in parentheses
Protocol: as §1

PGE2 = assay: Inhibition of PGE2 production by TNFα stimulation in synovial fibroblasts derived from a rheumatoid patient (EIA); conditions: for IC50: synovial fibroblasts, read-out: Inhibition against Mediator Release IC50(nM) PGE2; for Inhibitory ratios (%) at 1000 nM, PGE2: in parentheses
Protocol: as §1

NF-κ B = assay: Inhibitory activity of NF-κ B activation, luciferase reporter assay in HepG2 under TNF-α stimulation; conditions: HepG2, TNF-α (40 ng/ml), 4 hours; for inhibition at 1 µg/mL / inhibition at 10 µg/mL: Homo sapiens; for Inhibitory Ratio of NF-κ B Activation(%) Drug Concentration 1 μg/mL / inhibition at 1 µg/mL: 1 μg/mL; for inhibition at 1 µg/mL: read-out: Inhibitory Ratio of NF-κ B Activation(%) Drug Concentration 1 μg/mL; for Inhibitory Ratio of NF-κ B Activation(%) Drug Concentration 10 μg/mL / inhibition at 10 µg/mL: 10 μg/mL; for inhibition at 10 µg/mL: read-out: Inhibitory Ratio of NF-κ B Activation(%) Drug Concentration 10 μg/mL
Method in brief: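 HepG2 cells transiently transfected with a luciferase reporter driven by five tandem NF-κB binding sites, then incubated 6–24 h. Stimulated with TNF-α (40 ng/ml) with or without test compound for 4 h. Intracellular luciferase read by chemiluminescence; inhibition expressed relative to activity without compound.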

[1] = Homo sapiens, Fibroblast, comparison compounds, TNFα stimulation
[2] = rheumatic patient-derived synovial fibroblasts under TNFα stimulation
[3] = Homo sapiens, Fibroblast, 72 h, 10 ng/ml TNFα, 3 days

SMILES | inhibition at 1 µM (IL-8; Homo sapiens, Fibroblast, 72 h) | IC50 (IL-8; [1]) | IC50 (IL-6; [1]) | IC50 (PGE2; [1]) | Inhibitory Ratio of NF-κ B Activation(%) Drug Concentration 1 μg/mL (NF-κ B) | Inhibitory Ratio of NF-κ B Activation(%) Drug Concentration 10 μg/mL (NF-κ B) | further results
O=C(Nc1ccc(Cl)c(Cl)c1)c1cc(Br)ccc1O [drawing 563, reference compound] | -12% | > 1000 nM | 205 nM | 208 nM | – | – | –
O=C(Nc1nc(C(F)(F)F)c(Br)s1)c1cc(Br)ccc1O [Compound No. 187] | – | – | – | – | 85.3% | 94.4% | IC50 (IL-6; 10 ng/ml TNFα, 3 days): 649 nM; IC50 (PGE2; 10 ng/ml TNFα, 3 days): 414 nM
O=C(Nc1cc(C(F)(F)F)cc(C(F)(F)F)c1)c1cc(CCc2ccccc2)ccc1O [Compound No. 24] | – | – | – | – | 92.3% | 98.3% | IC50 (IL-6; 10 ng/ml TNFα, 3 days): 593 nM
O=C(Nc1ccc(-c2ccccc2)cc1)c1cc(C(F)(F)F)ccc1O [reference compound] | -67% | > 1000 nM | 140 nM | 292 nM | – | – | –
COc1ccc(C(F)(F)F)cc1NC(=O)c1cc(Br)ccc1O [Compound No. 94] | – | – | – | – | 76.6% | 93.4% | IC50 (PGE2; 10 ng/ml TNFα, 3 days): 266 nM
O=C(Nc1cc(C(F)(F)F)cc(C(F)(F)F)c1)c1c(O)cccc1F [Compound No. 63] | – | – | – | – | 85.4% | 85.0% | IC50 (IL-8; 10 ng/ml TNFα, 3 days): 786 nM; IC50 (IL-6; 10 ng/ml TNFα, 3 days): 513 nM; IC50 (PGE2; 10 ng/ml TNFα, 3 days): 439 nM
O=C(Nc1ccc(C(F)(F)F)cc1C(F)(F)F)c1cc(Cl)ccc1O [Reference Example 1, N-[2,4-bis(trifluoromethyl)phenyl]-5-chloro-2-hydroxybenzamide, reference compound] | -70% | > 1000 nM | 202 nM | > 1000 nM | – | – | Inhibitory ratios (%) at 1000 nM, PGE2 (PGE2): 1.2%
O=C(Nc1ccc(F)cc1F)c1cc(I)ccc1O [reference compound] | -23% | > 1000 nM | 85 nM | 730 nM | – | – | –
CC(=O)c1ccc(NC(=O)c2cc(I)ccc2O)cc1 [reference compound] | -5.9% | > 1000 nM | 82 nM | > 1000 nM | – | – | Inhibitory ratios (%) at 1000 nM, PGE2 (PGE2): −3.9%
O=C(Nc1ccccc1C(F)(F)F)c1cc(Cl)ccc1O [Reference Example 2, N-[2-(trifluoromethyl)phenyl]-5-chloro-2-hydroxybenzamide, reference compound] | 14% | > 1000 nM | 887 nM | 676 nM | – | – | –
O=C(Nc1ccc(C(F)(F)F)cc1)c1cc(Cl)ccc1O [Reference Example 6, N-[4-(trifluoromethyl)phenyl]-5-chloro-2-hydroxybenzamide, reference compound] | 4.2% | > 1000 nM | > 1000 nM | > 1000 nM | – | – | Inhibitory ratios (%) at 1000 nM, IL-6 (IL-6): 36%; Inhibitory ratios (%) at 1000 nM, PGE2 (PGE2): −24%
O=C(Nc1cc(Br)cc(C(F)(F)F)c1)c1cc(Br)ccc1O [Compound No. 86] | – | – | – | – | 96.7% | 98.7% | IC50 (IL-6; 10 ng/ml TNFα, 3 days): 565 nM; IC50 (PGE2; 10 ng/ml TNFα, 3 days): 562 nM
O=C(Nc1ccc(F)cc1F)c1cc([N+](=O)[O-])ccc1O [drawing 564, reference compound] | -4.5% | > 1000 nM | 248 nM | 62 nM | – | – | –
O=C(Nc1cc(Cl)cc(Cl)c1)c1cc(Cl)ccc1O [Compound No. 125] | – | – | – | – | 84.5% | 96.8% | IC50 (IL-6; 10 ng/ml TNFα, 3 days): 903 nM; IC50 (PGE2; 10 ng/ml TNFα, 3 days): 966 nM
O=C(Nc1cc(C(F)(F)F)cc(C(F)(F)F)c1)c1c(O)ccc2ccccc12 [Compound No. 73] | – | – | – | – | 93.1% | 97.9% | IC50 (IL-8; 10 ng/ml TNFα, 3 days): 670 nM; IC50 (IL-6; 10 ng/ml TNFα, 3 days): 337 nM; IC50 (PGE2; 10 ng/ml TNFα, 3 days): 662 nM
COc1ccc(C(C)(C)C)cc1NC(=O)c1cc(Cl)ccc1O [Compound No. 135, 5-chloro-N-{5-[(1,1-dimethyl)ethyl]-2-methoxyphenyl}-2-hydroxybenzamide] | – | – | – | – | – | – | inhibition of the production of IL-8 (in words) (IL-8; [2]): potently inhibited; also recorded: strongly inhibited; inhibition at 1 µg/mL (NF-κ B): 86.2%; inhibition at 10 µg/mL (NF-κ B): 99.2%; IC50 (IL-6; [3]): 61 nM; inhibition of the production of IL-6 (in words) (IL-6; [2]): potently inhibited; also recorded: strongly inhibited; IC50 (PGE2; [3]): 41 nM; inhibition of the production of PGE2 (in words) (PGE2; [2]): potently inhibited; also recorded: strongly inhibited
O=C(Nc1cccc(C(F)(F)F)c1)c1cc(Br)ccc1O [Reference Example 4, N-[3-(trifluoromethyl)phenyl]-5-bromo-2-hydroxybenzamide, reference compound] | 16% | > 1000 nM | 690 nM | 413 nM | – | – | –
O=C(Nc1ccc(Cl)c(C(F)(F)F)c1)c1cc(Br)ccc1O [Reference Example 5, N-[4-chloro-3-(trifluoromethyl)phenyl]-5-bromo-2-hydroxybenzamide, reference compound] | 16% | > 1000 nM | 91 nM | 57 nM | – | – | –
O=C(Nc1cc(C(F)(F)F)cc(C(F)(F)F)c1)c1cc(-n2cccc2)ccc1O [Compound No. 27] | – | – | – | – | 93.8% | 97.9% | IC50 (IL-8; 10 ng/ml TNFα, 3 days): 527 nM; IC50 (IL-6; 10 ng/ml TNFα, 3 days): 355 nM; IC50 (PGE2; 10 ng/ml TNFα, 3 days): 532 nM
O=C(Nc1cc(C(F)(F)F)cc(C(F)(F)F)c1)c1cc(C(F)(F)F)ccc1O [Compound No. 25] | – | – | – | – | 96.4% | 99.6% | IC50 (IL-6; 10 ng/ml TNFα, 3 days): 452 nM
O=C(Nc1ccc(C(F)(F)F)cc1Cl)c1cc(Br)ccc1O [Reference Example 7, N-[2-chloro-4-(trifluoromethyl)phenyl]-5-bromo-2-hydroxybenzamide, reference compound] | 16% | > 1000 nM | > 1000 nM | > 1000 nM | – | – | Inhibitory ratios (%) at 1000 nM, IL-6 (IL-6): 27%; Inhibitory ratios (%) at 1000 nM, PGE2 (PGE2): 10%
O=C(Nc1ccc(Cl)cc1C(F)(F)F)c1cc(Cl)ccc1O [Reference Example 3, N-[4-chloro-2-(trifluoromethyl)phenyl]-5-chloro-2-hydroxybenzamide, reference compound] | -43% | > 1000 nM | > 1000 nM | > 1000 nM | – | – | Inhibitory ratios (%) at 1000 nM, IL-6 (IL-6): −17%; Inhibitory ratios (%) at 1000 nM, PGE2 (PGE2): 20%
O=C(Nc1cc(C(F)(F)F)cc(C(F)(F)F)c1)c1cc(C#Cc2ccccc2)ccc1O [Compound No. 22, N-[3,5-bis(trifluoromethyl)phenyl]-2-hydroxy-5-(phenylethynyl)-benzamide] | – | – | – | – | – | – | IC50 (IL-8; [3]): 869 nM; inhibition at 1 µg/mL (NF-κ B): 83.9%; inhibition at 10 µg/mL (NF-κ B): 97.1%; IC50 (IL-6; [3]): 665 nM
COC(=O)c1ccc(O)c(C(=O)Nc2cc(C(F)(F)F)cc(C(F)(F)F)c2)c1 [Compound No. 35, N-[3,5-bis(trifluoromethyl)phenyl]-4-hydroxyisophthalamic acid methyl ester] | – | – | – | – | – | – | inhibition at 1 µg/mL (NF-κ B): 88.2%; inhibition at 10 µg/mL (NF-κ B): 96.4%
O=C(Nc1cc(C(F)(F)F)cc(C(F)(F)F)c1)c1scc(Br)c1O [Compound No. 74, 4-Bromo-3-hydroxy-N-[3,5-bis(trifluoromethyl)phenyl]thiophene-2-carboxamide] | – | – | – | – | – | – | inhibition at 1 µg/mL (NF-κ B): 64%; inhibition at 10 µg/mL (NF-κ B): 97.5%
CCc1nc(NC(=O)c2cc(Br)ccc2O)oc1CC [Compound No. 234, 5-Bromo-N-(4,5-diethyloxazol-2-yl)-2-hydroxybenzamide] | – | – | – | – | – | – | inhibition at 1 µg/mL (NF-κ B): 29.1%; inhibition at 10 µg/mL (NF-κ B): 63.1%
CCOc1ccc(OCC)c(NC(=O)c2cc(Cl)ccc2O)c1 [Compound No. 152] | – | – | – | – | 35.1% | 95.3% | –

From patent publication US20060089395A1, “Nf-kb activation inhibitors” (priority 2002, published 2006)
